According to BindingDB's records for patent US20240254093 (Heptares Therapeutics Limited, 2024):

Molecular target: G-protein coupled receptor 35 (Homo sapiens, UniProt Q9HC97)
Experiment: Human GPR35a Isoform Binding Assay
Procedure: Overexpression of Human GPR35a Baculovirus in HEK293f cells at a cell density of 2.5 106 cells/mL and a multiplicity of infection of 2.5 over 24 h in Pro293 (Lonza)+5% FBS, 1% Glutamax and 0.4% Pen/Strep. Cells harvested and centrifuged at 2500 RPM for 10 mins at 4 C. The supernatant was then poured off and the pellet stored at +-80 C. The pellet was defrosted and re-suspended in 15 mL of homogenising buffer (20 mM HEPES, 10 mM EDTA, pH 7.4). Then homogenised in mechanical homogeniser (VMR) for 10 seconds. The membrane was centrifuged in centrifuge tubes at 40,000 g for 15 mins at 4 C. The supernatant was poured away and re-suspended in 15 mL of homogenising buffer. Homogenised for 20 seconds. The membrane was centrifuged at 40,000 g for 45 mins at 4 C. The membrane was re-suspended in 3 mL of storage buffer (20 mM HEPES, 0.1 mM EDTA, pH 7.4) mixing well. The resulting membranes were then stored at +-80 . […] 0.1 uM FAC Lodoxamide was added in order to allow non-specific binding to be calculated. […] Plates were dried prior to 50 ul/well scintillant added, sealed and radioactivity measured using a MicroBeta analyser. IC50 values were derived from the inhibition curve and affinity constant (Ki) values were calculated using the Cheng-Prussoff equation, where; pKi=+-log 10 Ki.

Sequence of G-protein coupled receptor 35 (Q9HC97 whole entry, canonical isoform): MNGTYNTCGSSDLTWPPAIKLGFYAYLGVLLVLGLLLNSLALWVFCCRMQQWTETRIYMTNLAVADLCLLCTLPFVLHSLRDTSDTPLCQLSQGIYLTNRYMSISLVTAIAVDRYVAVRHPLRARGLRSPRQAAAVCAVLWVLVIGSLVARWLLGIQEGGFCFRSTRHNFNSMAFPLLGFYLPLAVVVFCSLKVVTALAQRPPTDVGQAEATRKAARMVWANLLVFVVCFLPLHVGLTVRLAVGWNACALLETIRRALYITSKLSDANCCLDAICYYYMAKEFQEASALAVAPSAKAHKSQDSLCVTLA

Row | SMILES | Ki [nM]
1 | O=c1c(O)c(Nc2cccc(-c3nn[nH]n3)c2)c1=O [US20240254093, Example 1] | 9.81
2 | O=c1c(O)c(Nc2cc(-c3ccccc3)cc(-c3nn[nH]n3)c2)c1=O [US20240254093, Example 3] | 0.35
